Laboratory results: US20100120752A1, “MUSCARINIC AGONISTS TO TREAT IMPULSE CONTROL DISORDERS” (Solvay Pharmaceuticals, B.V., priority 2007, published 2010)

What was measured:
Male Wistar rats = assay: 5-Choice Serial Reaction Time task, MK801 alone; assay type: in vivo, rat; settings: for number of anticipatory responses / number of correct responses / number of fault responses / number of missed responses / percentage of correct responses / persevering responses / total number of responses: ±S.E.M.
Excerpt: (§1) Male Wistar rats weighing 330-450 g (Harlan, The Netherlands) were housed in pairs under a 12-h light/dark cycle (lights off at 7:00 a.m.) and had daily access to a limited amount of food that kept their body weight at approximately 85% of the free feeding weight. Water was available ad libitum. All procedures were in compliance with the European Communities Council Directive of Nov. 24, 1986 (86/609 EEC).
(§2) Standard 5-CSRT boxes from MED associates Inc. Georgia, Vt. US were used. The curved wall of the chamber contained five 1.6 cm2 holes, 2.2 cm deep, 2 cm above floor level. […] In every hole a yellow stimulus light was presented. A food dispenser was located at the opposite wall. The box was illuminated by a 28 Volt 100 mA house light. The 5-CSRT boxes were placed in sound attenuating cubicles. On-line control of the apparatus and data collection were performed by a MED-PC experimental apparatus programming system (Tatham, 1989), running on a Dell Optiplex GX1 PC.
(§3) Rats were first trained to collect reinforcement pellets from the food dispenser and to collect reinforcements that were placed in the 5 holes in order to habituate the animals to the 5-CSRT task apparatus. Next, training of the 5-CSRT task started. These sessions started by illumination of the light in one of the holes for 30 seconds (stimulus duration). A response by the rat into the illuminated hole or a response in that particular hole for a short period of time after the illumination (the limited hold 60 sec) was rewarded with the delivery of a food pellet, termination of the trial and a correct response was recorded. The light stimulus was presented in each of the holes 20 times during a session (total of 100 presentations), and the order of presentations was randomized. […] After termination of the trial a variable inter-trial interval was started (1, 3, 5, 7 or 9 sec) after which the next trial was started. Upon reaching a 75% correct performance level the duration of illumination of the light stimulus was reduced until a presentation of 0.5 sec (from 30 to 20, 10, 5, 2, 1, 0.9; 0.8; 0.7; 0.6; 0.5.) and a limited hold of 5 sec (in three steps from 30 to 20, 10 and 5 sec), was reached. (Robbins, 1993).
(§4) The following parameters were measured (Muir, 1996):
(§5) Accuracy: the percentage correct responses divided by the total responses made.
(§6) Errors of omission: the number of missed stimulus presentations.
(§7) Correct responses: the number of correct responses.
(§8) Fault responses: the number of responses in the wrong hole.
(§9) Anticipatory responses: the number of premature responses made preceding the presentation of the light stimulus.
(§10) Persevering responses: responses emitted after an incorrect or correct response.
MK801 was tested in a Latin hexagon design, meaning that each rat received all test dosages (0, 0.01, 0.025 and 0.05 mg/kg s.c.) in a random order.

[1] = system: MK801 induced increase of anticipatory responses of rats; assay: 5-Choice Serial Reaction Time task, interaction studies against MK801; assay type: in vivo, rat; settings: ±SEM
Excerpt: as §1, §2, §3, §4, §5, §6, §7, §8, §9, §10
Both xanomeline and desmethylclozapine were each tested in the same dose range against 0.05 mg/kg (s.c.) MK801, a dose shown to elicit unequivocal impulsive behavior (see Table 1).

[2] = evident at 0.025 mg/kg and 0.05 mg/kg, p<0.05
[3] = first series, MK801 0.01 mg/kg s.c.
[4] = first series, MK801 0.025 mg/kg s.c.
[5] = first series, MK801 0.05 mg/kg s.c.
[6] = second series, MK801 0.01 mg/kg s.c.
[7] = second series, MK801 0.025 mg/kg s.c.
[8] = second series, MK801 0.05 mg/kg s.c.
[9] = 0.05 mg/kg (s.c.) MK801 with 0 mg/kg desmethylclozapine
[10] = 0.05 mg/kg (s.c.) MK801 with 0 mg/kg xanomeline

CC12NC(Cc3ccccc31)c1ccccc12 (centres unmarked) [MK801, dizocilpine]
effect on missed responses (Male Wistar rats; [2]): decreased
effect on number of anticipatory responses (Male Wistar rats; [2]): boosted
effect on persevering responses (Male Wistar rats; [2]): boosted
effect on total number of responses (Male Wistar rats; [2]): boosted
number of anticipatory responses (Male Wistar rats; [3]): 51.3 ± 5.4
number of correct responses (Male Wistar rats; [3]): 52.6 ± 3.3
number of fault responses (Male Wistar rats; [3]): 19.8 ± 2.2
number of missed responses (Male Wistar rats; [3]): 27.7 ± 3.3
percentage of correct responses (Male Wistar rats; [3]): 72.6 ± 2.8%
persevering responses (Male Wistar rats; [3]): 7.9 ± 1
total number of responses (Male Wistar rats; [3]): 72.3 ± 3.3
number of anticipatory responses (Male Wistar rats; [4]): 73.2 ± 8.7
number of correct responses (Male Wistar rats; [4]): 53.8 ± 3.9
number of fault responses (Male Wistar rats; [4]): 22.6 ± 2.7
number of missed responses (Male Wistar rats; [4]): 23.6 ± 2.9
percentage of correct responses (Male Wistar rats; [4]): 70.0 ± 3.7%
persevering responses (Male Wistar rats; [4]): 17.7 ± 4.1
total number of responses (Male Wistar rats; [4]): 76.4 ± 2.9
number of anticipatory responses (Male Wistar rats; [5]): 148.6 ± 38.6
number of correct responses (Male Wistar rats; [5]): 55.3 ± 3.2^
number of fault responses (Male Wistar rats; [5]): 26.0 ± 2.7^
number of missed responses (Male Wistar rats; [5]): 18.7 ± 3.1
percentage of correct responses (Male Wistar rats; [5]): 68.0 ± 3%
persevering responses (Male Wistar rats; [5]): 28.2 ± 4.7
total number of responses (Male Wistar rats; [5]): 81.3 ± 3.1
number of anticipatory responses (Male Wistar rats; [6]): 78.1 ± 14.8
number of correct responses (Male Wistar rats; [6]): 60.8 ± 2.1
number of fault responses (Male Wistar rats; [6]): 21.8 ± 2.1
number of missed responses (Male Wistar rats; [6]): 17.5 ± 2.1
percentage of correct responses (Male Wistar rats; [6]): 73.8 ± 2.3%
persevering responses (Male Wistar rats; [6]): 11.1 ± 3.1
total number of responses (Male Wistar rats; [6]): 82.5 ± 2.1
number of anticipatory responses (Male Wistar rats; [7]): 97.3 ± 16.2
number of correct responses (Male Wistar rats; [7]): 62.7 ± 2.9
number of fault responses (Male Wistar rats; [7]): 21.8 ± 1.9
number of missed responses (Male Wistar rats; [7]): 15.6 ± 1.9
percentage of correct responses (Male Wistar rats; [7]): 74.0 ± 2.5%
persevering responses (Male Wistar rats; [7]): 10.7 ± 1.7
total number of responses (Male Wistar rats; [7]): 84.4 ± 1.9
number of anticipatory responses (Male Wistar rats; [8]): 148.3 ± 29.8
number of correct responses (Male Wistar rats; [8]): 62.3 ± 2.9^
number of fault responses (Male Wistar rats; [8]): 23.3 ± 2.3^
number of missed responses (Male Wistar rats; [8]): 14.5 ± 1.8
percentage of correct responses (Male Wistar rats; [8]): 72.7 ± 2.6^ %
persevering responses (Male Wistar rats; [8]): 18.8 ± 4.2
total number of responses (Male Wistar rats; [8]): 85.5 ± 1.8
effect on numbers of correct responses (Male Wistar rats; summary of table 1): does not influence
effect on numbers of fault responses (Male Wistar rats; summary of table 1): does not influence
% correct responses [1, 9]: 66.2 ± 3.8%
nr anticipatory resp [1, 9]: 116.8 ± 19.9
nr of correct resp [1, 9]: 53.8 ± 4.4
nr of fault resp [1, 9]: 25.9 ± 2.1
nr of missed resp [1, 9]: 20.3 ± 3.7
persevering resp [1, 9]: 20.2 ± 3.2
total nr of resp [1, 9]: 79.7 ± 3.7
% correct resp [1, 10]: 66.9 ± 3.5%
nr anticipatory resp [1, 10]: 133.8 ± 23.5
nr of correct resp [1, 10]: 53.3 ± 3.9
nr of fault resp [1, 10]: 25.9 ± 2.7
nr of missed resp [1, 10]: 20.8 ± 3.4
persevering resp [1, 10]: 16.9 ± 2.6
total nr of resp [1, 10]: 79.3 ± 3.4
